Measurements published in patent US8652718B2, “Resin composition, image-forming material, and image-forming method” (Fuji Xerox Co., Ltd., priority 2012, dated 2014).
Values after ≈ are worked out from the molar mass of the structure shown. Like-named read-outs stand apart in the source and are kept apart here.

Assays:
[1] = Measurement of solubility in tetrahydrofuran; assay type: physicochemical; details: for Solubility in tetrahydrofuran compared to Formulae (II-1) and (II-2): comparison in words from Table 1; for solubility: tetrahydrofuran, 24 °C, organic solvent or mixture, thermodynamic from solid, 24±1° C.
Protocol: The solubility of the compound represented by Formula (I-1) in tetrahydrofuran (24±1° C.) is measured in the following manner.
After 10.00 mg of the compound (dark brown solid) represented by Formula (I-1) is mixed with 5.00 ml of tetrahydrofuran in a screw vial, the vial is irradiated with ultrasonic waves for 30 minutes while the vial is sealed with a cap, and left to stand overnight at room temperature. The obtained solution is filtered through a membrane filter having a pore size of 25 nm, and a dry weight of the dark brown solid remaining on the filter is measured. As a result, the weight of the compound represented by Formula (I-1) dissolved in 5.00 ml of tetrahydrofuran is found, whereby the solubility in tetrahydrofuran may be calculated.

[2] = Visible near-infrared absorption spectrum in a tetrahydrofuran solution; assay type: physicochemical
Description: The dark brown solid obtained as above is identified by an infrared absorption spectrum (KBr tablet method), a ^1H-NMR spectrum, a mass spectrum, and a visible near-infrared absorption spectrum. As a result, the dark brown solid described above is confirmed to have a molecular structure represented by Formula (I-1).
Visible Near-Infrared Absorption Spectrum (FIG. 1): […]

[3] = read-out: Solubility in tetrahydrofuran
[4] = read-out: Solubility in tetrahydrofuran, Relative evaluation

Row | Compound | Solubility in tetrahydrofuran compared to Formulae (II-1) and (II-2) [1] | solubility [1, 3] | solubility [1, 4] | Maximum absorption wavelength (λmax) [2] | Molar absorption coefficient at the maximum absorption wavelength (εmax) [2]
1 | CC(C)(C)c1ccc(C2=CC(=CC3=C([O-])/C(=C/c4cc(-c5ccc(C(C)(C)C)cc5)[s+]c(-c5ccc(C(C)(C)C)cc5)c4)C3=O)C=C(c3ccc(C(C)(C)C)cc3)S2)cc1 [Formula I-1] | superior solubility in tetrahydrofuran | 1300 µg/mL | ≥ 1000 µg/mL | 908 nm | 269000 M⁻¹ cm⁻¹
2 | CCCCc1ccc(C2=CC(=CC3=C([O-])/C(=C/c4cc(-c5ccc(CCCC)cc5)[s+]c(-c5ccc(CCCC)cc5)c4)C3=O)C=C(c3ccc(CCCC)cc3)S2)cc1 [Formula I-2] | superior solubility in tetrahydrofuran | 1100 µg/mL | ≥ 1000 µg/mL | 910 nm | 210000 M⁻¹ cm⁻¹
3 | CCc1ccc(C2=CC(=CC3=C([O-])/C(=C/c4cc(-c5ccc(CC)cc5)[s+]c(-c5ccc(CC)cc5)c4)C3=O)C=C(c3ccc(CC)cc3)S2)cc1 [Formula I-3] | superior solubility in tetrahydrofuran | 600 µg/mL | 100 to 1000 µg/mL | 908 nm | 180000 M⁻¹ cm⁻¹
4 | O=C1C(C=C2C=C(c3ccccc3)SC(c3ccccc3)=C2)=C([O-])/C1=C/c1cc(-c2ccccc2)[s+]c(-c2ccccc2)c1 [II-1, reference compound] | – | < 50 µg/mL | < 100 µg/mL | 901 nm | 207000 M⁻¹ cm⁻¹
5 | Cc1ccc(C2=CC(=CC3=C([O-])/C(=C/c4cc(-c5ccc(C)cc5)[s+]c(-c5ccc(C)cc5)c4)C3=O)C=C(c3ccc(C)cc3)S2)cc1 [II-2, reference compound] | – | 300 µg/mL (≈ 455 µM) | 100 to 1000 µg/mL (≈ 152 to 1520 µM) | 905 nm | 190000 M⁻¹ cm⁻¹
6 | CCCCCCc1ccc(C2=CC(=CC3=C([O-])/C(=C/c4cc(-c5ccc(CCCCCC)cc5)[s+]c(-c5ccc(CCCCCC)cc5)c4)C3=O)C=C(c3ccc(CCCCCC)cc3)S2)cc1 [II-3, reference compound] | – | 1100 µg/mL (≈ 1170 µM) | ≥ 1000 µg/mL | 910 nm | 200000 M⁻¹ cm⁻¹
